{"source": "patent US20060173031A1", "about": "“Therapeutic agent for schizophrenia” (MITSUBISHI PHARMA CORPORATION, priority 2003, published 2006)", "system": "Phencyclidine (PCP)-induced passive avoidance reaction disorder", "experiment": "Phencyclidine (PCP)-induced passive avoidance reaction disorder in rats", "assay_type": "in vivo, Wistar male rats", "conditions": "10 mg/kg oral, 30 min before PCP 2 mg/kg i.p.; test trial 24 hr after acquisition trial; max 300 seconds; versus vehicle group", "data": [{"smiles": "Cc1oc2nc3c(c(NC(=O)CN4CCCC4=O)c2c1C)CCCC3", "note": "[compound A, 2-(2-oxopyrrolidin-1-yl)-N-(2,3-dimethyl-5,6,7,8-tetrahydrofuro[2,3-b]quinolin-4-yl)acetamide]", "values": [{"measurement": "latent time of test trial (passive avoidance reaction)", "result": "significantly prolonged the latent time shortened by the PCP administration"}]}]}
